Laboratory results taken from PubChem BioAssay AID179 (DTP/NCI, 2004).
Active and inactive are the calls of the source.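 The calls were made as follows: active = compounds giving half or more protection of infected cells from virus-caused growth loss, again on retest; inactive = the rest.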

Test system: CEM cells HIV-1 protection, formazan growth assay
Experiment: NCI AIDS Antiviral Assay
Conditions: for IC50: measured here: growth of uninfected CEM cells
Outline: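 Human CEM cells, uninfected and HIV-1-infected, received five drug concentrations, and growth was read by soluble formazan assay. Compounds giving at least 50% protection were retested; reproducible 100% protection defined confirmed active.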

SMILES | EC50 [µM] | IC50 [µM] | outcome
CCCCCC(O)C1C(=O)OC(C)C(O)/C=C/C=C/C=C/C=C\C=C(\C)C(O)CC(O)CC(O)CC(O)CC(O)CC(O)CC1O (configuration not stated) | > 200 | > 200 | –
COc1ccc2c(c1)CCC1=C2CC(=O)N2CCCCN12 | > 91.2 | > 91.2 | –
COc1ccc(NC(=O)/C(=C/N2C(=O)/C(=C/c3ccc(OC)c(OC)c3)NC2=S)C(C)=O)cc1 | > 200 | 23.4 | –
O=c1oc2ccccc2c(O)c1C(c1ccc2c(c1)OCO2)c1c(O)c2ccccc2oc1=O | > 200 | 75.9 | –
O=C(NCc1ccccc1Cl)c1c(O)c2ccccc2[nH]c1=O | > 200 | > 200 | –
O=C(/C=C/c1cc(O)c(O)cc1O)OCCc1ccccc1 | > 200 | 9.33 | –
O=[N+]([O-])c1cc(Cl)ccc1Sc1ccccc1 | – | – | inactive
NC(=O)NCCSC1CCCCC1O (configuration not stated) | > 200 | > 200 | –
C[n+]1c(-c2ccc(/C=N/NC(=N)N/N=C/c3ccc(-c4cn5cc(Cl)ccc5[n+]4C)cc3)cc2)cn2cc(Cl)ccc21 | 6.46 | 155 | –
COc1nc2nc(C(O)C(O)CO)cnc2c(=O)n1C (configuration not stated) | > 891 | > 891 | inactive
CCCCCCCC(=O)O[C@H]1[C@H]2[C@@H](CC1(C)C)C(=O)[C@]13O[C@H]1C(=O)[C@]1(CO1)[C@]23C | > 162 | 0.55 | –
COC(=O)/C=C/c1cc(OC)c2c(c1)[C@H](C(=O)OC)[C@@H](c1ccc(O)c(OC)c1)O2 | > 20 | 1.02 | –
O=c1[nH]nc2ccccc2c1Cc1ccccc1 | > 151 | > 151 | –
CC(=O)c1ccc2c(c1)CC1(C2)Cc2cc3c(cc2C1=O)CCC3 (configuration not stated) | > 200 | 14.5 | –
Cc1[nH]c2cc([N+](=O)[O-])ccc2c1[N+](=O)[O-] | – | – | inactive
CCC1(CC=C(C)C)Oc2cccnc2-n2cccc2C1=O (configuration not stated) | > 200 | 117 | –
O=C(Cc1ccc(OCc2cccc(Cl)c2)cc1)NO | > 200 | 29.5 | –
CCOC(=O)C(Cc1c[nH]c2cc([N+](=O)[O-])ccc12)NS(=O)(=O)c1ccc2ccccc2c1 (configuration not stated) | > 15.5 | > 15.5 | –
COc1ccc(C(=C(I)c2ccccc2)c2ccc(OC)cc2)cc1 | > 200 | 182 | –
CC1=C(C#N)C(=O)OC1(C)C(CC(=O)c1ccccc1)c1ccccc1 (configuration not stated) | > 200 | 8.32 | –
CN(C)CCc1c2c(nc3ccccc13)C(=O)c1cccnc1C2=O | – | – | inactive
COc1ccc(/C=C\c2cc(OC)c(OC)c(OC)c2)cc1OC(=O)CCC(=O)O | > 0.2 | 0.000562 | –

SMILES | EC50 [µM] | IC50 [µM] | outcome
O=C(NO)Nc1ccc(Cl)cc1 | – | 251 | inactive
O=S(=O)(c1ccc(F)cc1)c1ccc(F)cc1 | > 200 | > 200 | –
Cc1ccc(C)n1-c1ccccc1C1C=Cn2c(=O)oc3c(OC(C)C)c(OC(C)C)c(O)c1c32 (configuration not stated) | > 200 | 16.2 | –
CC(C)(C)C1COP(=S)(c2ccccc2)OC1 (configuration not stated) | > 69.2 | > 69.2 | –
Cc1cc2nn(C3CCCCO3)nc2cc1C (configuration not stated) | > 200 | > 200 | –
O=C(N=Nc1cc(Cl)ccc1Cl)NNc1cc(Cl)ccc1Cl | > 200 | 11.2 | –
COc1cccc(C=O)c1[O-].COc1cccc(C=O)c1[O-].[Zn+2] | > 676 | 21.9 | –
CS/C(=N\c1nccs1)NC(=O)c1cccc(Cl)c1 | > 58.9 | > 58.9 | –
COc1cccc(/C=C2\SC(=S)N(/C=C(/C#N)C(N)=O)C2=O)c1O | 100 | 112 | –
CCN(CC)CCN1C(=O)C(=O)N(c2cccc3ccccc23)C1=O | > 200 | > 200 | –
C1CN(c2nnc(N3CCC3)nn2)C1 | – | – | inactive
O=C(O)c1c2c(nc3ccccc13)CCC2 | > 447 | > 447 | –
Cc1cn(C(CO)OC(CO)CP(=O)(O)O)c(=O)[nH]c1=O (configuration not stated) | > 200 | > 200 | –
c1ccc(NC2(c3nnnn3C3CCCCC3)CCNCC2)cc1 | > 200 | 34.7 | –
Cn1c2ccccc2n2c3ncccc3c(=S)c(C#N)c12 | > 200 | > 200 | –
CC(C)=CCC/C(C)=C/CC/C(C)=C/C(O)c1ccccc1 (configuration not stated) | > 50.1 | > 50.1 | –
N#CC(C(=O)CCCC(=O)Nc1ccc(Cl)cc1Cl)c1ccccc1 (configuration not stated) | > 661 | > 661 | –
NC(CSS(=O)(=O)O)=NC1CCCCC1 | > 200 | 138 | –
N=C(c1ccccc1)N(O)C1CCCCC1 | – | – | inactive
COC(=O)c1ccccc1/C=C1\Cc2cc(C)cc(C)c2C1=O | – | – | inactive
CCC(O)CCCCCCCCCCCCCCC(=O)O (configuration not stated) | – | – | inactive
Cc1ccc2oc(-c3nnc(N)s3)cc(=O)c2c1 | > 28.2 | > 28.2 | –

SMILES | EC50 [µM] | IC50 [µM] | outcome
CC(C)N1CC2CC(CN(C(=O)c3ccccc3)C2)C1 | > 676 | > 676 | –
CON(C)C(=O)CNC(=O)OCC1c2ccccc2-c2ccccc21 | > 200 | > 100 | –
CN(N)C(=O)NCCCl | > 200 | > 200 | –
CCNCC1c2ccccc2-c2nc3ccccc3nc2-c2ccccc21 | > 60.3 | 8.32 | –
O=C1c2ccccc2Sc2ccccc2N1CCN1CCN(c2ccc(F)cc2)CC1 | > 200 | > 200 | –
Cc1nnc(CC#N)n1NC(=O)CC#N | > 200 | > 200 | –
O=c1ccn2c(n1)OC1C(O)C(CO)OC12 (configuration not stated) | > 200 | > 200 | –
O=[N+]([O-])c1cnn(C2=CNc3ccccc3N=C2)c1 | > 7.41 | > 7.41 | –
Cc1ccc(N=NC(=O)NNc2ccc(C)c([N+](=O)[O-])c2)cc1[N+](=O)[O-] | > 200 | 63.1 | –
CC(C)(C)OC1=C(OC(C)(C)C)C(O)(c2ccccc2)C1=O (configuration not stated) | – | – | inactive
NC(Cc1ccccc1)C(=O)OCN1C(=O)C2C3C=CC(C2C1=O)C1C2C(=O)N(COC(=O)C(N)Cc4ccccc4)C(=O)C2C31 (configuration not stated) | > 200 | 31.6 | –
CC1(C)C(=O)c2ccccc2OC1N1CCN(C2Oc3ccccc3C(=O)C2(C)C)CC1 (configuration not stated) | – | – | inactive
CCCc1[nH]c(SCCCCCCCCSc2nc(-c3ccc(F)cc3)c(CCC)[nH]2)nc1-c1ccc(F)cc1 | > 9.33 | > 9.33 | –
COc1cc2c3c(c1)ncn3C(=O)CCS2 | > 200 | > 200 | –
Cc1ccc(S(=O)(=O)c2c(N)c3nc4ccccc4n3c3nc4ccccc4nc23)cc1 | > 4.57 | > 4.57 | –
N#CCC(=O)N/N=C1/C(=O)NC(=O)C(=O)C1c1nc2ccccc2s1 (configuration not stated) | – | – | inactive
CC(C)[Si](O[C@@H]1CCC[C@@]23O[C@@H]2CC2C(=O)c4c(O)cccc4C(=O)[C@@]2(O)[C@@H]13)(C(C)C)C(C)C (some centres not stated) | > 200 | 14.1 | –
Nc1ccccc1N1C(=O)C(Cl)=C(Cl)C1=O | – | – | inactive
CC(C)(C)C1CCC(=O)C(C(O)CC2CC(=O)N(c3ccccc3)C(=O)C2)C1 (configuration not stated) | > 200 | > 200 | –
COC(=O)c1cc2cc(CS(=O)(=O)O)ccc2cc1O | > 200 | 102 | –
COc1ccc(NC(=O)CC(=O)N/N=C/c2ccc(N(CCC#N)S(C)(=O)=O)cc2)cc1 | > 148 | > 148 | –
CCCCCCCCC[C@@H]1C[C@H](O)[C@H](Cc2ccccc2)N1C(=O)OC(C)(C)C | > 200 | 35.5 | –
